This experiment deals with CD2F1 mice, L1210 leukemia ip, survival T/C. Kind of experiment: NCI In Vivo Anticancer Drug Screen. Data for tumor model L1210 Leukemia (intraperitoneal) in CD2F1 (CDF1) mice. Conditions: higher = longer survival. Summed up: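 In this screen, transplantable tumors were grown in mice given either the compound or its vehicle. Results were expressed as the treated measurement relative to the control measurement.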

The mark [1] stands for this setting: endpoint: mean survival time, dose: 100.0 mg/kg/injection, schedule: Q01DX009 (ip), vehicle: saline with Tween-80.
Where [2] appears, read: endpoint: mean survival time, dose: 200.0 mg/kg/injection, schedule: Q01DX009 (ip), vehicle: saline with Tween-80.
Where [3] appears, read: endpoint: mean survival time, dose: 100.0 mg/kg/injection, schedule: Q04DX003 (ip), vehicle: saline with Tween-80.
[4] abbreviates: endpoint: mean survival time, dose: 200.0 mg/kg/injection, schedule: Q04DX003 (ip), vehicle: saline with Tween-80.
Where [5] appears, read: endpoint: mean survival time, dose: 400.0 mg/kg/injection, schedule: Q04DX003 (ip), vehicle: saline with Tween-80.
Setting [6] is: endpoint: mean survival time, dose: 100.0 mg/kg/injection, schedule: Q01DX001 (ip), vehicle: saline with Tween-80.
[7] abbreviates: endpoint: mean survival time, dose: 200.0 mg/kg/injection, schedule: Q01DX001 (ip), vehicle: saline with Tween-80.
Where [8] appears, read: endpoint: mean survival time, dose: 400.0 mg/kg/injection, schedule: Q01DX001 (ip), vehicle: saline with Tween-80.

Several values for one entry are separate records, joined by “and”; a condition that tells them apart may be missing. Identical values can stand only once. Toxic doses and inconclusive results are not listed.

Consider `C[C@H](N)C(=O)N[C@@H]1[C@H]2C(=C(O)C[C@@H](O)[C@@H]2O)C(=O)O[C@]1(C)C(Cl)Cl`, for which the T/C by setting is: (endpoint: median survival time, dose: 0.07 mg/kg/injection, schedule: Q03HX024 (ip), vehicle: saline) 106 % of control; (endpoint: median survival time, dose: 0.09 mg/kg/injection, schedule: Q01DX009 (ip), vehicle: saline) 106 % of control and 109 % of control; (endpoint: median survival time, dose: 0.14 mg/kg/injection, schedule: Q03HX024 (ip), vehicle: saline) 120 % of control; (endpoint: median survival time, dose: 0.18 mg/kg/injection, schedule: Q01DX009 (ip), vehicle: saline) 114 % of control and 118 % of control; (endpoint: median survival time, dose: 0.19 mg/kg/injection, schedule: Q01DX009 (ip), vehicle: Klucel (hydroxypropylcellulose) (HPC)) 105 % of control and 110 % of control and 112 % of control; (endpoint: median survival time, dose: 0.21 mg/kg/injection, schedule: Q03HX008 (ip), vehicle: saline) 103 % of control. Moreover, the T/C reads like this: (endpoint: median survival time, dose: 0.28 mg/kg/injection, schedule: Q03HX024 (ip), vehicle: saline) 124 % of control; (endpoint: median survival time, dose: 0.34 mg/kg/injection, schedule: Q01DX005 (ip), vehicle: saline) 116 % of control; (endpoint: median survival time, dose: 0.34 mg/kg/injection, schedule: Q01DX005 (iv), vehicle: saline) 98 % of control; (endpoint: median survival time, dose: 0.37 mg/kg/injection, schedule: Q01DX009 (ip), vehicle: Klucel (hydroxypropylcellulose) (HPC)) 120 % of control; (endpoint: median survival time, dose: 0.37 mg/kg/injection, schedule: Q01DX009 (ip), vehicle: saline) 124 % of control; (endpoint: median survival time, dose: 0.37 mg/kg/injection, schedule: Q01DX009 (ip), vehicle: water) 118 % of control. Further, the T/C was 117 % of control and 123 % of control and 111 % of control (endpoint: median survival time, dose: 0.38 mg/kg/injection, schedule: Q01DX009 (ip), vehicle: Klucel (hydroxypropylcellulose) (HPC)); 116 % of control (endpoint: median survival time, dose: 0.42 mg/kg/injection, schedule: Q03HX008 (ip), vehicle: saline); 113 % of control (endpoint: median survival time, dose: 0.56 mg/kg/injection, schedule: Q04DX003 (ip), vehicle: saline); 109 % of control (endpoint: median survival time, dose: 0.68 mg/kg/injection, schedule: Q01DX005 (iv), vehicle: saline); 150 % of control and 152 % of control and 155 % of control (endpoint: median survival time, dose: 0.75 mg/kg/injection, schedule: Q01DX009 (ip), vehicle: saline); 116 % of control (endpoint: median survival time, dose: 1.13 mg/kg/injection, schedule: Q04DX003 (ip), vehicle: saline). Besides, the T/C reads like this: (endpoint: median survival time, dose: 1.5 mg/kg/injection, schedule: Q01DX009 (ip), vehicle: saline) 155 % of control and 176 % of control and 190 % of control; (endpoint: median survival time, dose: 1.5 mg/kg/injection, schedule: Q01DX009 (ip), vehicle: water) 153 % of control; (endpoint: median survival time, dose: 1.69 mg/kg/injection, schedule: Q01DX001 (ip), vehicle: saline) 112 % of control; (endpoint: median survival time, dose: 1.69 mg/kg/injection, schedule: Q01DX001 (iv), vehicle: saline) 101 % of control; (endpoint: median survival time, dose: 2.25 mg/kg/injection, schedule: Q04DX003 (ip), vehicle: saline) 124 % of control; (endpoint: median survival time, dose: 2.7 mg/kg/injection, schedule: Q01DX005 (ip), vehicle: saline) 167 % of control. For the same compound, the T/C is 100 % of control (endpoint: median survival time, dose: 3.0 mg/kg/injection, schedule: Q01DX009 (oral), vehicle: saline); 116 % of control (endpoint: median survival time, dose: 3.38 mg/kg/injection, schedule: Q01DX001 (ip), vehicle: saline); 113 % of control (endpoint: median survival time, dose: 3.38 mg/kg/injection, schedule: Q01DX001 (iv), vehicle: saline); 91 % of control (endpoint: median survival time, dose: 6.0 mg/kg/injection, schedule: Q01DX009 (ip), vehicle: water); 97 % of control (endpoint: median survival time, dose: 6.0 mg/kg/injection, schedule: Q01DX009 (oral), vehicle: saline); 100 % of control (endpoint: median survival time, dose: 12.0 mg/kg/injection, schedule: Q01DX009 (oral), vehicle: saline). Moreover, the T/C (endpoint: median survival time, dose: 24.0 mg/kg/injection, schedule: Q01DX009 (oral), vehicle: saline) was 112 % of control.
`COC(=O)C(CSCSCc1ccccc1)NC(=O)C(CSCc1ccccc1)NC(=O)CCNC(=O)OCc1ccccc1` (stereo not drawn): the T/C was 96 % of control (endpoint: mean survival time, dose: 25.0 mg/kg/injection, schedule: Q01DX009 (ip), vehicle: Klucel (hydroxypropylcellulose) (HPC)); 93 % of control (endpoint: mean survival time, dose: 50.0 mg/kg/injection, schedule: Q01DX009 (ip), vehicle: Klucel (hydroxypropylcellulose) (HPC)); 88 % of control (endpoint: mean survival time, dose: 100.0 mg/kg/injection, schedule: Q01DX009 (ip), vehicle: Klucel (hydroxypropylcellulose) (HPC)); 93 % of control (endpoint: mean survival time, dose: 200.0 mg/kg/injection, schedule: Q01DX009 (ip), vehicle: Klucel (hydroxypropylcellulose) (HPC)); 90 % of control (endpoint: mean survival time, dose: 400.0 mg/kg/injection, schedule: Q01DX009 (ip), vehicle: Klucel (hydroxypropylcellulose) (HPC)).
On to `NNC(=S)S`, for which the T/C is 96 % of control (endpoint: mean survival time, dose: 5.0 mg/kg/injection, schedule: Q01DX001 (ip), vehicle: saline) and 98 % of control (endpoint: mean survival time, dose: 10.0 mg/kg/injection, schedule: Q01DX001 (ip), vehicle: saline).
Take `CN=C(N)N/N=C(\C)c1ccc2c(c1)Cc1ccccc1-2`: the T/C (endpoint: mean survival time, dose: 12.5 mg/kg/injection, schedule: Q01DX009 (ip), vehicle: saline with Tween-80) was 102 % of control; the T/C (endpoint: mean survival time, dose: 25.0 mg/kg/injection, schedule: Q01DX009 (ip), vehicle: saline with Tween-80) is 105 % of control; the T/C (endpoint: mean survival time, dose: 50.0 mg/kg/injection, schedule: Q01DX009 (ip), vehicle: saline with Tween-80) is 108 % of control; the T/C under setting [1] was 97 % of control; the T/C under setting [2] is 91 % of control; the T/C (endpoint: median survival time, dose: 12.5 mg/kg/injection, schedule: Q01DX009 (ip), vehicle: saline with Tween-80) is 101 % of control. Further, the T/C by setting is: (endpoint: median survival time, dose: 25.0 mg/kg/injection, schedule: Q01DX009 (ip), vehicle: saline with Tween-80) 106 % of control; (endpoint: median survival time, dose: 50.0 mg/kg/injection, schedule: Q01DX009 (ip), vehicle: saline with Tween-80) 103 % of control; (endpoint: median survival time, dose: 100.0 mg/kg/injection, schedule: Q01DX009 (ip), vehicle: saline with Tween-80) 101 % of control; (endpoint: median survival time, dose: 200.0 mg/kg/injection, schedule: Q01DX009 (ip), vehicle: saline with Tween-80) 106 % of control.
Turning to `O=c1ssc2ccccc12`, the T/C reads like this: under setting [3], 101 % of control; under setting [4], 101 % of control; under setting [5], 98 % of control.
With `CCOC(=O)NC(=O)OCC`, the T/C (endpoint: mean survival time, dose: 100.0 mg/kg/injection, schedule: Q01DX001 (ip), vehicle: saline sonified) was 102 % of control; the T/C (endpoint: mean survival time, dose: 200.0 mg/kg/injection, schedule: Q01DX001 (ip), vehicle: saline sonified) is 107 % of control; the T/C (endpoint: mean survival time, dose: 400.0 mg/kg/injection, schedule: Q01DX001 (ip), vehicle: saline sonified) was 100 % of control.
With `CC(C)(C)N[P+](Cc1ccc(C[P+](NC(C)(C)C)(NC(C)(C)C)c2ccccc2)cc1)(NC(C)(C)C)c1ccccc1`, the T/C was 109 % of control (endpoint: mean survival time, dose: 1.56 mg/kg/injection, schedule: Q04DX003 (ip), vehicle: saline) and 95 % of control (endpoint: mean survival time, dose: 3.13 mg/kg/injection, schedule: Q04DX003 (ip), vehicle: saline).
Regarding `CCC1(C)CCC2=C(CCC3C(C)(C(=O)OC)CCCC23C)C1` (stereo not drawn), the T/C reads like this: under setting [6], 93 % of control; under setting [7], 89 % of control; under setting [8], 89 % of control.
`O=C(OCc1ccccc1)c1cc([N+](=O)[O-])c(Cl)c([N+](=O)[O-])c1`: the T/C is 101 % of control under setting [6]; 97 % of control under setting [1]; 97 % of control under setting [7]; 98 % of control under setting [2]; 98 % of control under setting [8].
For the compound `O=C(O)c1ccccc1.[Pb]`, the T/C is, setting by setting: (endpoint: mean survival time, dose: 100.0 mg/kg/injection, schedule: Q01DX001 (ip), vehicle: saline) 94 % of control; (endpoint: mean survival time, dose: 200.0 mg/kg/injection, schedule: Q01DX001 (ip), vehicle: saline) 102 % of control; (endpoint: mean survival time, dose: 400.0 mg/kg/injection, schedule: Q01DX001 (ip), vehicle: saline) 96 % of control.
Regarding `O=P(Oc1cccc(Br)c1)(Oc1cccc(Br)c1)c1ccccc1`, the T/C under setting [3] is 98 % of control, the T/C under setting [4] is 106 % of control and the T/C under setting [5] was 108 % of control.
Consider `CNc1ccn(C2OC(CO)C(O)C2O)c(=O)n1` (stereo not drawn), for which the T/C runs as follows: (endpoint: mean survival time, dose: 100.0 mg/kg/injection, schedule: Q01DX005 (ip), vehicle: distilled water + Tween-80) 107 % of control; (endpoint: mean survival time, dose: 200.0 mg/kg/injection, schedule: Q01DX005 (ip), vehicle: distilled water + Tween-80) 104 % of control; (endpoint: mean survival time, dose: 400.0 mg/kg/injection, schedule: Q01DX005 (ip), vehicle: distilled water + Tween-80) 107 % of control.

These data come from PubChem BioAssay AID256 (DTP/NCI, 2004).
